Measurements: publication PMC12183592, “Discovery of Iboga-Derived Ligands for the Sigma‑2 Receptor” (ACS Bio & Med Chem Au, 2025)

Tests used:
MOR = MOR (Homo sapiens, UniProt P35372); assay: PDSP secondary radioligand displacement assay, Ki; type: binding; conditions: supplement xlsx
5-HT2A = 5-HT2A (Homo sapiens, UniProt P28223); assay: PDSP secondary radioligand displacement assay, Ki; type: binding; conditions: supplement xlsx
Excerpt: (§1) Thirteen analogs, in addition to ibogamine itself (Figure ), were submitted to the PDSP for biological evaluation. Primary radioligand displacement assays were run on 44 neurotransmitter receptors and transporters to give a snapshot of the receptor affinity for each ligand.

Alpha2A = molecular target: T1, Alpha2A (Homo sapiens, UniProt P08913); assay: PDSP secondary radioligand displacement assay, Ki; type: binding
T1 sequence (P08913 1-465): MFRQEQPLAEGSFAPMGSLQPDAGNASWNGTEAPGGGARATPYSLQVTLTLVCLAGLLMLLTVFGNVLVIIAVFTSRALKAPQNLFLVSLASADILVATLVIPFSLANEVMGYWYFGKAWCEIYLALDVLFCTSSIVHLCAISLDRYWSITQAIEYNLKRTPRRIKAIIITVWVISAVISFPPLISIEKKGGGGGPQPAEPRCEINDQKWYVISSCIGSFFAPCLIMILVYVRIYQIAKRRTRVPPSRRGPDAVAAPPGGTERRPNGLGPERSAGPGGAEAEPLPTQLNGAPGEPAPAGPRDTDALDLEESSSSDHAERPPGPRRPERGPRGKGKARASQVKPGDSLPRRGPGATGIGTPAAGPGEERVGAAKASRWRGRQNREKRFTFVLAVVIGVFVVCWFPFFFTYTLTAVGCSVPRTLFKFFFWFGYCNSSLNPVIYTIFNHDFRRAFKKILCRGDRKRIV
Excerpt: as §1

M1 = M1 (Homo sapiens, UniProt P11229); assay: PDSP secondary radioligand displacement assay, Ki; type: binding
Chain of M1 (P11229 whole entry): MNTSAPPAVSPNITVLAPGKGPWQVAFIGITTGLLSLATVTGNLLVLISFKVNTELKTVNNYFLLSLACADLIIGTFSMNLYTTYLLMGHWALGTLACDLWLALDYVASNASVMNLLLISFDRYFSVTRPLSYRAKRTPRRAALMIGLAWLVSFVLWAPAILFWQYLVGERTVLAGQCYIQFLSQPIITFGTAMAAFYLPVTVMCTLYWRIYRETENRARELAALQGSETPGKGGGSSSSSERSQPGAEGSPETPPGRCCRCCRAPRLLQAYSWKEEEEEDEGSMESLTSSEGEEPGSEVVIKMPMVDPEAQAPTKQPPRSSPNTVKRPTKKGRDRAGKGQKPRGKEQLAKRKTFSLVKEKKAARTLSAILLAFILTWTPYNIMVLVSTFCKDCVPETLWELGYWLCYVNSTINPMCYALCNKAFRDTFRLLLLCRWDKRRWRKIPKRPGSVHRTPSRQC
Excerpt: as §1

SERT = SERT (Homo sapiens, UniProt P31645); assay: PDSP secondary radioligand displacement assay, Ki; type: binding; conditions: supplement xlsx
Chain of SERT (P31645 whole entry, species assumed): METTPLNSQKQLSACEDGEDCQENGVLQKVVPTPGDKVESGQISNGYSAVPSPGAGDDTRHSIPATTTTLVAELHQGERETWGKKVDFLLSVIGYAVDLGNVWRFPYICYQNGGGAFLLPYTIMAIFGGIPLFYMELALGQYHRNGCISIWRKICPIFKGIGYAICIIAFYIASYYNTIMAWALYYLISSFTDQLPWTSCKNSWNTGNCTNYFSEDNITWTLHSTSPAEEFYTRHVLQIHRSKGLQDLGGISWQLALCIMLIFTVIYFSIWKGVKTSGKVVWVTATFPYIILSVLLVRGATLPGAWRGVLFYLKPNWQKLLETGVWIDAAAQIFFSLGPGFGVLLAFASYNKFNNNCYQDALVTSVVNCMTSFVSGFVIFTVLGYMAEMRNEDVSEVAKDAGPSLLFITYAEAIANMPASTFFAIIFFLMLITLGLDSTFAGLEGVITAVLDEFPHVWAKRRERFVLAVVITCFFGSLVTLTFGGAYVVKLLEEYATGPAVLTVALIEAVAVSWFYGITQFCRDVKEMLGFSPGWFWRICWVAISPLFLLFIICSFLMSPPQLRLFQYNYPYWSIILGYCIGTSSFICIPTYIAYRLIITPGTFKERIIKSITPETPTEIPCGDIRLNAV
Excerpt: as §1

H4 = H4 (Homo sapiens, UniProt Q9H3N8); assay: PDSP secondary radioligand displacement assay, Ki; type: binding; conditions: supplement xlsx
Excerpt: as §1

Alpha2B = molecular target: T2, Alpha2B (Homo sapiens, UniProt P18089); assay: PDSP secondary radioligand displacement assay, Ki; type: binding; conditions: supplement xlsx
T2 sequence (P18089 1-450): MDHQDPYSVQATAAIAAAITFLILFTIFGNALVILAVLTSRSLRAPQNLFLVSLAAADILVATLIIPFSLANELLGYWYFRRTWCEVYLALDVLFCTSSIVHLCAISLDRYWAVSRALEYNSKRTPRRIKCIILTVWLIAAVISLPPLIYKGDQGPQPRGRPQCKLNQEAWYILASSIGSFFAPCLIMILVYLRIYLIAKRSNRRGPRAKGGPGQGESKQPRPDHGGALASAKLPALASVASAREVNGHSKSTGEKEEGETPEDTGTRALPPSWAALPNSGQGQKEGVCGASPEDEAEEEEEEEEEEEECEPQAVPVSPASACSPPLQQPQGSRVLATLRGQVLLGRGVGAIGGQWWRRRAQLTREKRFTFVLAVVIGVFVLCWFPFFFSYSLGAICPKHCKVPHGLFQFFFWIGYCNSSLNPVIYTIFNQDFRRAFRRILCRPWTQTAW
Excerpt: as §1

Alpha2C = molecular target: T3, Alpha2C (Homo sapiens, UniProt P18825); assay: PDSP secondary radioligand displacement assay, Ki; type: binding; conditions: Ki values (nM) Alpha2C, supplement xlsx and text
T3 sequence (P18825 1-462): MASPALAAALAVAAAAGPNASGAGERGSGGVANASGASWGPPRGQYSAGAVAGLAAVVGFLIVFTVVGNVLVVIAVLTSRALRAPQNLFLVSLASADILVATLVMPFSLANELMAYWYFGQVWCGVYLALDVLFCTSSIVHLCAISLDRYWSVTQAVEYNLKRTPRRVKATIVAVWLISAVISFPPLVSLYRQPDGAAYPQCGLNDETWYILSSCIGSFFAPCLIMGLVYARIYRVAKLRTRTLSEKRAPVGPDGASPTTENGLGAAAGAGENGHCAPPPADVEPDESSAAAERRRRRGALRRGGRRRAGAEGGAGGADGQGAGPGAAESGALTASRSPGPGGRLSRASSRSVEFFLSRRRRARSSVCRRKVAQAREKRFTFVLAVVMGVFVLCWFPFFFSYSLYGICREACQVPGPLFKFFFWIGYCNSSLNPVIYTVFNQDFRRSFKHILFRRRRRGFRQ
Excerpt: as §1

KOR = KOR (Homo sapiens, UniProt P41145); assay: PDSP secondary radioligand displacement assay, Ki; type: binding; conditions: supplement xlsx
Chain of KOR (P41145 whole entry): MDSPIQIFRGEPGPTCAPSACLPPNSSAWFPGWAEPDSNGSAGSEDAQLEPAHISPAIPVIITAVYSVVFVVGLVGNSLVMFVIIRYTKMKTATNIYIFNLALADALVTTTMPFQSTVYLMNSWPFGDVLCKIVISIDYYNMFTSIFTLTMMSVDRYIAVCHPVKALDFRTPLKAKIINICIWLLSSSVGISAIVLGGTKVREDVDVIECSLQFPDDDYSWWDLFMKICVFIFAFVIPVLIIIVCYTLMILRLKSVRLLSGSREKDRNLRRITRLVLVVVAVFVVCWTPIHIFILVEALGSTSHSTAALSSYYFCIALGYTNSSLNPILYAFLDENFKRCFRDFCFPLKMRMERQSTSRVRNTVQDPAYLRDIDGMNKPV
Excerpt: as §1

H3 = H3 (Homo sapiens, UniProt Q9Y5N1); assay: PDSP secondary radioligand displacement assay, Ki; type: binding
Chain of H3 (Q9Y5N1 whole entry): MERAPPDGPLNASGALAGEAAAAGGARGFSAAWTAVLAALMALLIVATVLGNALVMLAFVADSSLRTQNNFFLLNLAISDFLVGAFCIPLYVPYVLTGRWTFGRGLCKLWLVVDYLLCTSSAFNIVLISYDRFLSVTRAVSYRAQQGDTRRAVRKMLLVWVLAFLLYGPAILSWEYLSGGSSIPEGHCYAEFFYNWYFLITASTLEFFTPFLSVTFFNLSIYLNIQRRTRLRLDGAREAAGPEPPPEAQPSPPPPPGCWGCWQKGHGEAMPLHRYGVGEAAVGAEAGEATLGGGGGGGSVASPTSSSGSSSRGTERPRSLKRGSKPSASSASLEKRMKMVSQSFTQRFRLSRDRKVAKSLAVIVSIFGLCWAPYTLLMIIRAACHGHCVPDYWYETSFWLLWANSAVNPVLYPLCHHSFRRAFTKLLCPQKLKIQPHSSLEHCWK
Excerpt: as §1

M3 = M3 (Homo sapiens, UniProt P20309); assay: PDSP secondary radioligand displacement assay, Ki; type: binding
Chain of M3 (P20309 whole entry): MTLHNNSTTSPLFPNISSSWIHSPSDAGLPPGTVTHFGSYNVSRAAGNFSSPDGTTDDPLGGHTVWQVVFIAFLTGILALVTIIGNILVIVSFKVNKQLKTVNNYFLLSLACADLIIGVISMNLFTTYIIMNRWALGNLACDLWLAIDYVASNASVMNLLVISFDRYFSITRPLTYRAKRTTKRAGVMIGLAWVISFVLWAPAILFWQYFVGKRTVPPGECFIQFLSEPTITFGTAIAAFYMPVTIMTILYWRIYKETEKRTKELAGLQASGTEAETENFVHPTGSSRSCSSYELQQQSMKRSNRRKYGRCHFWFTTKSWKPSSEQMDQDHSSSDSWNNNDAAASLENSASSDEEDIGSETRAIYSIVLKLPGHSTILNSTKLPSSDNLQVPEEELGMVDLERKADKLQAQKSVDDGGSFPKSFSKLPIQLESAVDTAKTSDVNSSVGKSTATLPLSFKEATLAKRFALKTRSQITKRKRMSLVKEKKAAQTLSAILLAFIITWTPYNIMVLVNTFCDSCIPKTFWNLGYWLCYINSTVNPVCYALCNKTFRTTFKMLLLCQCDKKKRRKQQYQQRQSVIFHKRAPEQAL
Excerpt: as §1

H1 = H1 (Homo sapiens, UniProt P35367); assay: PDSP secondary radioligand displacement assay, Ki; type: binding
Excerpt: as §1

M5 = M5 (Homo sapiens, UniProt P08912); assay: PDSP secondary radioligand displacement assay, Ki; type: binding
Excerpt: as §1

M2 = molecular target: T4, M2 (Homo sapiens, UniProt P08172); assay: PDSP secondary radioligand displacement assay, Ki; type: binding
T4 sequence (P08172 1-466): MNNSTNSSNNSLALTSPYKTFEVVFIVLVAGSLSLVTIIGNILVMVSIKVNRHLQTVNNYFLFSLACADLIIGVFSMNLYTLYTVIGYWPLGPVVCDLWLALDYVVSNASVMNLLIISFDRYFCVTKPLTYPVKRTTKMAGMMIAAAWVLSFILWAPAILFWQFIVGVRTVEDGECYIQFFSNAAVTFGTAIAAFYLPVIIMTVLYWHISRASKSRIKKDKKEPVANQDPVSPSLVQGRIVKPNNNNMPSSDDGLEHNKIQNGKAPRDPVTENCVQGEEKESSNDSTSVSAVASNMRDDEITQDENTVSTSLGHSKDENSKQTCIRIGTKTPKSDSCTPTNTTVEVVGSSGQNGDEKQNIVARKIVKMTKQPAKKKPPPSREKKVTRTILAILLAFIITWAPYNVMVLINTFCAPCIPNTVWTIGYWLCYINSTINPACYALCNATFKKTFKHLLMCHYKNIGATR
Excerpt: as §1

M4 = M4 (Homo sapiens, UniProt P08173); assay: PDSP secondary radioligand displacement assay, Ki; type: binding; conditions: supplement xlsx
Excerpt: as §1

S2R = molecular target: S2R; design: method as in earlier work; conditions: ref 30 (Bowen et al., 1995); read-out: affinity at S2R (Ki); cited from earlier work
5-HT1D = 5-HT1D (Homo sapiens, UniProt P28221); assay: PDSP secondary radioligand displacement assay, Ki; type: binding; conditions: supplement xlsx
Chain of 5-HT1D (P28221 whole entry, species assumed): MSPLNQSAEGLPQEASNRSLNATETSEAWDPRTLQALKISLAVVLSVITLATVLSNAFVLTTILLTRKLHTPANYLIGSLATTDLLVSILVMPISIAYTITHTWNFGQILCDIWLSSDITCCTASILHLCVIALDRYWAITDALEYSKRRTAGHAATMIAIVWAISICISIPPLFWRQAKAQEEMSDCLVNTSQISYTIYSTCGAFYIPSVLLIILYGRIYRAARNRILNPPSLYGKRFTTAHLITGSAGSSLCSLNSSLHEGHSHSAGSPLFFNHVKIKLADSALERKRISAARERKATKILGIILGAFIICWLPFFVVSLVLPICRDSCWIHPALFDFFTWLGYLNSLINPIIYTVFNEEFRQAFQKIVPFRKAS
Excerpt: as §1

NET = NET (Homo sapiens, UniProt P23975); assay: PDSP secondary radioligand displacement assay, Ki; type: binding
Chain of NET (P23975 whole entry): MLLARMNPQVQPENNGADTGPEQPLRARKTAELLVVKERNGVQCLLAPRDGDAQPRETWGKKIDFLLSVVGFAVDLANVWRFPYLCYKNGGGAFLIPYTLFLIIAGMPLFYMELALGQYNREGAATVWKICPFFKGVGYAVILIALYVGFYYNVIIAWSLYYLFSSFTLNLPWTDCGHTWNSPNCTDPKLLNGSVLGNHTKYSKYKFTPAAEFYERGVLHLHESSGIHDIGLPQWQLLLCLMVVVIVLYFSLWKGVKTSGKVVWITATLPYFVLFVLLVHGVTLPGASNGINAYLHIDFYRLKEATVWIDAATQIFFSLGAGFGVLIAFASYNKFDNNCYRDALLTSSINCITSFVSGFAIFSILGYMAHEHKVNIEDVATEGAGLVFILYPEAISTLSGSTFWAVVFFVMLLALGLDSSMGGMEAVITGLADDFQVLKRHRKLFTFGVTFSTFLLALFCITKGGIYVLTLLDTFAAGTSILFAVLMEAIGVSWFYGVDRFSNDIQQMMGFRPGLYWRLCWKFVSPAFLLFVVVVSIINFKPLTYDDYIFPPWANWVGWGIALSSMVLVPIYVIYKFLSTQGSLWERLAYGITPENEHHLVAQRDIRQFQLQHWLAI
Excerpt: as §1

DAT = DAT (Homo sapiens, UniProt Q01959); assay: PDSP secondary radioligand displacement assay, Ki; type: binding
Chain of DAT (Q01959 whole entry, species assumed): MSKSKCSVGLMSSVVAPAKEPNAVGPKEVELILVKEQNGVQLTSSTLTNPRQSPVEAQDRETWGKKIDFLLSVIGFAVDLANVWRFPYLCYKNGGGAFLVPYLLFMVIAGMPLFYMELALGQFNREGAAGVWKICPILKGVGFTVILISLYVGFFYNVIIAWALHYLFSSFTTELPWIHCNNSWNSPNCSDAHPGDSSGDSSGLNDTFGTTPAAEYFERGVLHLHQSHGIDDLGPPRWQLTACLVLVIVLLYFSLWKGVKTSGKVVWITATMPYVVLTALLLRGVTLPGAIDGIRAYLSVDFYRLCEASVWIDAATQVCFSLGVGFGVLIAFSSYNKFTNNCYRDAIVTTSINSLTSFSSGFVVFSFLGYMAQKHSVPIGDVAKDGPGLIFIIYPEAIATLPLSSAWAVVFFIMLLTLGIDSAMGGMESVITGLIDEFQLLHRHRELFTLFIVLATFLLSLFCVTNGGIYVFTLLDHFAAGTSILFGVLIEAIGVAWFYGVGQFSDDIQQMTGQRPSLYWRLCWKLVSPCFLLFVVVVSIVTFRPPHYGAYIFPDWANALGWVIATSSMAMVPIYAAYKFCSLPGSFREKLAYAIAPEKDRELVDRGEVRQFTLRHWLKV
Excerpt: as §1

5-HT3 = 5-HT3 (Homo sapiens, UniProt P46098); assay: PDSP secondary radioligand displacement assay, Ki; type: binding; conditions: supplement xlsx
Excerpt: as §1

D2 = D2 (Homo sapiens, UniProt P14416); assay: PDSP secondary radioligand displacement assay, Ki; type: binding
Excerpt: as §1

D3 = D3 (Homo sapiens, UniProt P35462); assay: PDSP secondary radioligand displacement assay, Ki; type: binding
Excerpt: as §1

Alpha1B = Alpha1B (Homo sapiens, UniProt P35368); assay: PDSP secondary radioligand displacement assay, Ki; type: binding
Excerpt: as §1

Chain of MOR (P35372 whole entry): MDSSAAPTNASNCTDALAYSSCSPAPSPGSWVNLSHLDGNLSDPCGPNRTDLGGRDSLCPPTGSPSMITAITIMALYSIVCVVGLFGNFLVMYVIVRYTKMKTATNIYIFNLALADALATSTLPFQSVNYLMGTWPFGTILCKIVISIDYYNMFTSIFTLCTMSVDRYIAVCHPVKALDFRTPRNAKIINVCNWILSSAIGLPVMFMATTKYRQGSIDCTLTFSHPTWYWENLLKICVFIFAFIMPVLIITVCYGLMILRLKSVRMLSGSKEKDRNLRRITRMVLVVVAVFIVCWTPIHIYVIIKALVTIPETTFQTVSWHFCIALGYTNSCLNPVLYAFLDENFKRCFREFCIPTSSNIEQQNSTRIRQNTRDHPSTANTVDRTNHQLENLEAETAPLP
Chain of 5-HT2A (P28223 whole entry): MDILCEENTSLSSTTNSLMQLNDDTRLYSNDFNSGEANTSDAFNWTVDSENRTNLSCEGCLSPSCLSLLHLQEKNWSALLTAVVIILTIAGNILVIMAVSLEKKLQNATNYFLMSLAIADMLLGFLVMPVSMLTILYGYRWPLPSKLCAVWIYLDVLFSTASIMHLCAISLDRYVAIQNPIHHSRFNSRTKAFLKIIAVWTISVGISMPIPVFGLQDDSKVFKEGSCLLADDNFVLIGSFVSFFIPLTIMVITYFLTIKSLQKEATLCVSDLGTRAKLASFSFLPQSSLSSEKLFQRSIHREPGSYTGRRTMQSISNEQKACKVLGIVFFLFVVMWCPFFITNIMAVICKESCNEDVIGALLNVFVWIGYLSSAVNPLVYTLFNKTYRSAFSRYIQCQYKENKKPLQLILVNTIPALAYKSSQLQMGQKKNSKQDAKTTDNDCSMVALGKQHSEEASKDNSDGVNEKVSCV

Row | Compound | Ki (MOR) [nM] | Ki (Alpha2A) [nM] | Ki (SERT) [nM] | Ki (Alpha2C) [nM] | Ki (KOR) [nM] | Ki (H3) [nM] | Ki (M3) [nM] | Ki (M2) [nM] | other results
1 | CCC1CC2CC3c4[nH]c5cc(C(F)(F)F)ccc5c4CCN(C2)C13 (stereo not drawn) [7e] | 3810 | 1420 | 206 | 110 | 1500 | 2290 | 1950 |  | Ki (5-HT2A): 1800 nM; Ki (M1): 4570 nM; Ki (H4): 3030 nM; Ki (Alpha2B): 1650 nM
2 | c1ccc2c3c([nH]c2c1)C1CC2C[C@H](C4CCOCC4)C1N(CC3)C2 (stereo partly drawn) [7i] | 1810 |  | 1710 |  |  |  | 73.7 | 150 | Ki (H1): 882 nM; Ki (M5): 224 nM; Ki (M1): 138 nM; Ki (M4): 37.9 nM
3 | C[C@H]1CC2CC3c4[nH]c5ccccc5c4CCN(C2)C31 (stereo partly drawn) [7g] |  |  | 371 |  |  |  |  |  | 
4 | CC[C@H]1C[C@@H]2C[C@H]3c4[nH]c5cc(OC)ccc5c4CC[N@@](C2)[C@@H]13 [tabernanthine (3), tabernanthine, reference compound] |  |  | 1300 |  | 319 | 2300 |  |  | Ki (S2R): 194 nM; Ki (5-HT1D): 7660 nM
5 | CCC1CC2CC3c4[nH]c5cc(Br)ccc5c4CCN(C2)C13 (stereo not drawn) [7c] | 4210 | 1630 | 162 | 71 | 1040 | 3320 | 1520 | 8030 | Ki (NET): 1750 nM; Ki (5-HT1D): 7460 nM; Ki (DAT): 807 nM; Ki (Alpha2B): 1620 nM; Ki (5-HT3): 1400 nM
6 | CCC1CC2CC3c4c(c5ccccc5n4CC=C(C)C)CCN(C2)C13 (stereo not drawn) [compound 23] | 6440 |  |  |  |  |  |  |  | Ki (D2): 2420 nM; Ki (H1): 1710 nM; Ki (D3): 249 nM
7 | CCC1CC2CC3c4[nH]c5cc(Cl)ccc5c4CCN(C2)C13 (stereo not drawn) [7b] | 4450 | 1720 | 177 | 1360 | 1400 | 2880 | 811 | 2940 | Ki (NET): 1790 nM; Ki (5-HT2A): 3000 nM; Ki (Alpha2B): 2360 nM; Ki (5-HT3): 1010 nM
8 | CC[C@H]1C[C@H]2C[C@H]3c4[nH]c5ccccc5c4CCN(C2)[C@@H]13 [ibogamine (1), ibogamine, reference compound] | 2460 |  | 272 |  |  |  | 2460 |  | Ki (S2R): 137 nM
9 | CCC1CC2CC3c4[nH]c5cc(F)ccc5c4CCN(C2)C13 (stereo not drawn) [7a] |  | 4100 | 153 | 623 | 4770 |  | 734 | 2690 | Ki (NET): 5700 nM; Ki (DAT): 1320 nM; Ki (Alpha1B): 2090 nM
10 | CC(C)[C@H]1CC2CC3c4[nH]c5ccccc5c4CCN(C2)C31 (stereo partly drawn) [7h] | 3130 |  | 709 |  | 995 |  | 414 |  | Ki (M5): 1100 nM; Ki (DAT): 2020 nM; Ki (M4): 416 nM
11 | ibogaine [ibogaine (2)] |  |  |  |  |  |  |  |  | Ki (S2R): 201 nM
12 | CCC1C[C@H]2CC3c4[nH]c5ccccc5c4CCN(C2=O)C13 (stereo in doubt) [compound 22] |  |  | 1380 |  |  |  |  |  | 
13 | CCC1CC2CC3c4[nH]c5cc6c(cc5c4CCN(C2)C13)OCO6 (stereo not drawn) [7f] |  |  |  |  |  | 5410 |  |  | Ki (5-HT1D): > 10000 nM
